Test results as given in patent US20050255084A1, “Use of a half-transporter protein of the abcg-family for selecting cells and in gene therapy” (SOLVO BIOTECHNOLOGY, priority 2001, published 2005).
≈ marks a conversion by molar mass, not a printed value.

Tests used:
[1] = test system: mock-transduced PLB985 X-CGD cells; experiment: Mitoxantrone uptake assay, mock-transduced cells; format: cell-based, human; conditions: 10 μM FTC, 5 μM MX
Description: Cells were suspended in phenol red-free Hank's balanced salt solution, with additional pH stabilization by 20 mM phosphate buffer. Aliquots of the suspension, containing 3×10^5 cells, were incubated with or without the addition of 5 μM MX, and also with 5 μM MX+10 μM FTC, a specific inhibitor of ABCG2 (Rabindran et al., 2000; van Loevezijn et al., 2001). After one hour incubation at 37° C., the cells were washed with ice-cold medium, resuspended in ice-cold medium containing 21 g/ml propidium-iodide, and stored on ice until analysis by flow cytometry. Cellular MX values were determined at 635 nm excitation/661 nm emission wavelengths.

ABCG2-G [2] = target: T1, ABCG2-G (Homo sapiens, UniProt Q9UNQ0, R482G); conditions: 10 μM FTC, 5 μM MX; transduced cells pre-selected with 10 nM MX
Description: (§1) Functional detection of ABCG2 expression was evaluated with a modified MX uptake assay of Robey et al. (Robey et al., 2001). Cells were suspended in phenol red-free Hank's balanced salt solution, with additional pH stabilization by 20 mM phosphate buffer. Aliquots of the suspension, containing 3×10^5 cells, were incubated with or without the addition of 5 μM MX, and also with 5 μM MX+10 μM FTC, a specific inhibitor of ABCG2 (Rabindran et al., 2000; van Loevezijn et al., 2001). After one hour incubation at 37° C., the cells were washed with ice-cold medium, resuspended in ice-cold medium containing 21 µg/ml propidium-iodide, and stored on ice until analysis by flow cytometry. Cellular MX values were determined at 635 nm excitation/661 nm emission wavelengths.

ABCG2-G [3] = target: T1, ABCG2-G; conditions: 10 μM FTC, 5 μM MX; ABCG2-G cells selected by 100 nM MX
Description: (§2) Panel B: Flow cytometry detection of mitoxantrone uptake (dotted lines: autofluorescence, solid thick lines: MX fluorescence, solid thin lines: MX fluorescence in the presence of the ABCG2-inhibitor, FTC). Part 1: Mock-transduced PLB985s; Part 2: PLB985s expressing ABCG2-R, selected by 10 nM MX; Part 3: PLB985s expressing ABCG2-G, selected by 100 nM MX.
as §1

ABCG2-R = ABCG2-R (Homo sapiens, UniProt Q9UNQ0); conditions: 10 μM FTC, 5 μM MX; ABCG2-R cells selected by 10 nM MX
Description: as §2, §1

[4] = Cytotoxicity assay (cell survival after 4 days), vector control; format: cell-based; conditions: human, mock-transduced (vector control) PLB985 cells
Description: (§3) Panel C: Cytotoxicity assay (cell survival after 4 days) of PLB985 cells expressing the ABCG2 variants. • ∘: Control, mock-transduced PLB985s; • Δ: PLB985s expressing ABCG2-R, selected by 10 nM MX; • ◯: PLB985s expressing ABCG2-G, selected by 100 nM MX.
(§4) This assay was performed in 24-well plates, cells seeded at a density of 200,000 cells/well. Cytotoxic drugs were added at the concentrations indicated and the cells were cultured for 4 days at 37° C. Total and live cell numbers were determined by flow cytometry after the addition of 2 μg/ml propidium-iodide, to identify dead cells.

[5] = test system: ABCG2-R (wild-type ABCG2); experiment: Cytotoxicity assay (cell survival after 4 days), wild-type ABCG2; format: cell-based; conditions: human, PLB985 cells expressing ABCG2-R (wild-type ABCG2), selected by 10 nM MX
Description: as §3, §4

ABCG2-G (R482G ABCG2) = experiment: Cytotoxicity assay (cell survival after 4 days), R482G ABCG2; format: cell-based; conditions: human, PLB985 cells expressing ABCG2-G (R482G ABCG2), selected by 100 nM MX
Description: as §3, §4

[6] = test system: transduced PLB985 X-CGD cells; experiment: Flow cytometry of gp91phox expression after drug selection; format: cell-based, human; conditions: 10 nM MX selection for four days; 40-48% before selection
Description: (§5) Transduced PLB985 cells were selected by stepwise increases in mitoxantrone or doxorubicin (DOX; other name: adriamycin) concentrations. Selection was started 5 days (in some cases: 7 days) after transduction; each drug concentration was applied for four days (in early experiments: 8 days). CD34+ cells were selected similarly but were first selected on day two after transduction.
(§6) Gp91^phox expression was measured by flow cytometry (Becton Dickinson FACS Calibur) by using the 7D5 antibody (provided by M. Nakamura (Nakamura et al., 1987) and phycoerythrin-labeled anti-mouse secondary antibody (GAM-PE, 250 times dilution, Sigma).

[7] = test system: human cord blood CD34+ cells; experiment: Suspension culture granulocyte differentiation with MX selection; format: cell-based; conditions: 5 nM MX selection
Excerpt: as §5
Cell differentiation was induced by 0.5% dimethyl-formamide (DMF) in order to obtain granulocytes. In order to follow granulocyte differentiation, cells were labelled with monoclonal anti-CD11b/RPE antibody (Dako, Denmark), and staining was determined by flow cytometry. For the induction of differentiation in the case of normal CD34+ cells, both liquid suspension cultures and clonogenic progenitor assays were used. For suspension culture, fresh media, containing cytokines +G-CSF (50 ng/ml) were added to the cells 24 hours after transduction, and then the cells were incubated for 12-14 days at 37° C.

[8] = test system: human cord blood CD34+ cells; experiment: Colony-forming cell assay; format: cell-based; conditions: 5 nM MX
Description: In the colony-forming cell assay the cells were plated at a concentration of 250 cells/ml and 1250 cells/ml in Iscove's medium, containing 0.9% methylcellulose, 30% FCS, 1% bovine serum albumin, 1.4×10^−5M dithiothreitol, 5 ng/ml human recombinant IL-3, 25 ng/ml SCF, 10 ng/ml GM-CSF, 2 ng/ml G-CSF and 2U/ml erythropoietin, in the presence or absence of 5 nM mitoxantrone. After 14 days of incubation at 37° C., the colony forming cells were counted.

[9] = test system: mouse X-CGD KO -/- bone marrow cells; experiment: Cytotoxicity assay on mouse bone marrow cells; format: cell-based
Description: FIG. 8. Panel A Cytotoxicity assay (cell survival after four days) on transduced mouse X-CGD KO −/− bone marrow cells • ♦Control, non transduced cells • ▪Cells tranduced by SPsAGS vector carrying cDNA of ABCG2-G, unselected, • ▴Cells tranduced by SPsATS vector carrying cDNA of ABCG2-T, unselected.
as §4
(§7) Drug selection of the transduced cells, cytotoxic assay, immunodetection of gp91^phox, nitroblue tetrazolium test (NBT) were performed similar as in human CD34+ cells except using murine cytokines. In the colony assay 10 000 cells were plated in semisolid medium containing 0, 5 and 10 nM MX.

[10] = test system: mouse X-CGD KO -/- bone marrow cells; experiment: Flow cytometry of gp91phox expression in selected mouse bone marrow cells; format: cell-based; conditions: 5 days selection on 5 nM or 10 nM MX; SPsAGS transduced BM cells
Description: as §6, §7

[11] = test system: mouse X-CGD KO -/- bone marrow cells; experiment: Colony assay from mouse bone marrow cells; format: cell-based; conditions: 5 nM or 10 nM MX in semisolid medium
Description: In the colony assay 10 000 cells were plated in semisolid medium containing 0, 5 and 10 nM MX.

T1 sequence (Q9UNQ0 whole entry R482G): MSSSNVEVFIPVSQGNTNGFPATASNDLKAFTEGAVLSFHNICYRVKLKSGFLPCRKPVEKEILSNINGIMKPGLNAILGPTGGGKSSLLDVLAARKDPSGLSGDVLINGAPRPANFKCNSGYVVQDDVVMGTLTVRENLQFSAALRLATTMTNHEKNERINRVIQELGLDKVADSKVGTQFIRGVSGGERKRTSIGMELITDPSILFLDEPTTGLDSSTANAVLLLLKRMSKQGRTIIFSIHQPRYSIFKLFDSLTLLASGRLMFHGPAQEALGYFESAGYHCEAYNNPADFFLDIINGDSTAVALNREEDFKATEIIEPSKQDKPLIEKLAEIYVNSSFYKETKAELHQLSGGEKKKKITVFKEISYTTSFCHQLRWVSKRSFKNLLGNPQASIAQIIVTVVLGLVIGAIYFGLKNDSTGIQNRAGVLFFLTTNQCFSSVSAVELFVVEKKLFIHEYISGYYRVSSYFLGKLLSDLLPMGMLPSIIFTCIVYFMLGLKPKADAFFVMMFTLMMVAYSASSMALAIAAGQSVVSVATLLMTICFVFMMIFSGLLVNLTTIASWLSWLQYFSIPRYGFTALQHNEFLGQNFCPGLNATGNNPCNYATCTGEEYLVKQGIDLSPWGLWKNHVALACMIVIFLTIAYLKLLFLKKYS
ABCG2-R, sequence (Q9UNQ0 whole entry): as the sequence (Q9UNQ0 whole entry R482G) above, with G482R counted along it

| Structure (SMILES) | effect on MX uptake [1] | sensitivity of MX uptake to the inhibitor (ABCG2-G [2]) | reversal of MX extrusion (ABCG2-G [3]) | reversal of MX extrusion (ABCG2-R) | IC50 at 4 days [4] [mg/L] | IC50 at 4 days [5] [mg/L] | IC50 at 4 days (ABCG2-G (R482G ABCG2)) [mg/L] | ratio of gp91phox-expressing cells after selection [6] | level of CD15+ cells after selection ([7]; ABCG2-G transduced CD34+ cells) | fate of mock-transduced cells in suspension culture ([7]; mock-transduced CD34+ cells) | decrease of CFC number ([8]; ABCG2-G transduced CD34+ cells) | colony formation ([8]; mock-transduced CD34+ cells) | survival of cells ([9]; 5 nM or more mitoxantron, non-transduced control BM cells) | transduced cells resistant to MX (surviving cells) ([9]; 5 or 10 nM mitoxantron, SPsAGS or SPsATS transduced, unselected BM cells) | gp91phox-positive cells after selection [10] [%] | colony formation ([11]; ABCG2-G transduced BM cells) | decrease of CFC number ([11]; ABCG2-T transduced BM cells) | colony formation ([11]; non-transduced BM cells) |
| --- | --- | --- | --- | --- | --- | --- | --- | --- | --- | --- | --- | --- | --- | --- | --- | --- | --- | --- |
| COc1ccc2c3c([nH]c2c1)[C@H](C=C(C)C)N1C(=O)[C@@H]2CCCN2C(=O)[C@@H]1C3 [FTC, Fumitremorgin C] | no effect | fully sensitive | fully reversible | fully reversible | – | – | – | – | – | – | – | – | – | – | – | – | – | – |
| COc1cccc2c1C(=O)c1c(O)c3c(c(O)c1C2=O)C[C@@](O)(C(=O)CO)C[C@@H]3O[C@H]1C[C@H](N)[C@H](O)[C@H](C)O1 [ADR, doxorubicin] | – | – | – | – | ~0.008 (≈ 0.0147 µM) | ~0.02 (≈ 0.0368 µM) | ~0.25 (≈ 0.46 µM) | – | – | – | – | – | – | – | – | – | – | – |
| O=C1c2c(O)ccc(O)c2C(=O)c2c(NCCNCCO)ccc(NCCNCCO)c21 [MX, mitoxantrone] | – | – | – | – | ~0.01 (≈ 0.0225 µM) | 0.03 (≈ 0.0675 µM) | 0.075 (≈ 0.169 µM) | over 90% | unchanged level of CD15+ cells | eliminated | about 50% | did not form colonies | all non-transduced control cells died | 15-20% | > 80 | hardly formed any | about 80% | did not form colonies |
